Experiments:
[1] = tested on: histamine stimulated gastric acid secretion from rat stomach; assay: Gastric acid secretion measured in vivo (histamine stimulated); design: species or system rat (male Wistar); settings: for Acid output, mean: histamine 2 mg/kg bolus; for Acid output compared to the histamine control (in words): treated orally, then challenged with histamine, FIGS. 1-3
Experimental: (§1) Male Wistar rats (weighing 200-225 g) were fasted for 24 hours in wire mesh cages to avoid coprophagy. The rats were obtained from the animal facilities of the Faculty of Medicine and Health Sciences of the United Arab Emirates (UAE) University. Materials
Groups of six rats were used for the experiment. Rats were initially anesthetized with urethane (1.5 g/kg) intraperitoneally. Following general anesthesia, a laparotomy was immediately performed followed by the insertion of a polyethylene tube at the pyloric end of the stomach. This tube was used to collect exudates from the stomach. An orogastric tube was inserted in the stomach via the esophagus. This tube was used to perfuse the stomach with saline (pH 7) at a constant rate of 7 mL/min at 37° C. Following perfusion, effluent samples were collected and titrated against 0.01 M NaOH every 15 minutes for acid secretion. After basal acid output for 1 hour, either saline, quercetin (50 mg/kg,), or diallyl sulfide (50 mg/kg), or allyl disulfide (10 mg/kg) at neutral pH was given orally and 30 minutes later, histamine (2 mg/kg) was administered as a bolus injection. Acid output was monitored continuously for 2 hours thereafter. The acid output was calculated and expressed as μmol (15 min^−1).

[2] = tested on: gastric ulcer formation in rat stomachs; assay: Antiulcer activity, acidified ethanol-induced gastric ulcer; type: in vivo, rat (male Wistar); design: key to Ulcer Index, Mean: total length of hemorrhagic lesions (mm) = ulcer index; settings: for Ulcer index compared to the control (in words): acidified ethanol model, rats; for Ulcer Index, Mean: 30 min before acidified ethanol, control 95.00
Experimental: as §1
Rats were divided into groups of six to seven animals for each experiment. Each group received either neutral pH physiologic saline (1 mL) or water extract of either quercetin, diallyl sulfide or allyl disulfide (1 mg/kg, 10 mg/kg, 50 mg/kg or 100 mg/kg; six rats for each dose) by gastric gavage. Two additional comparison groups received either the proton pump inhibitor Lansoprazole (10 mg/kg) or the H2-receptor antagonist Ranitidine (20 mg/kg). After 30 minutes of the treatment, 1 mL of acidified ethanol (60% ethanol with 150 mM HCl), an ulcerogenic agent, was administered orally to the animals. The animals were sacrificed 1 hour later by increasing the dose of the anaesthesia. The abdomen was incised, and the stomachs removed, cut open along the greater curvature, and rinsed with saline to remove any adherent particles and mucus. The open stomach was spread on a sheet of cork so as to have a clear view of gastric lesions in the gastric mucosa. The total lengths of hemorrhagic lesions, which were approximately 1 mm in length and formed in the glandular portion of the gastric mucosa, were taken as ulcer index. An observer who was unaware of the drug treatments confirmed the ulcer index. The percentage reduction of the ulcer index in the drug-treated groups was calculated from the saline treated groups. The use of 60% ethanol in 150 mM HCl to produce an ulcerogenic effect was based on earlier observation that ethanol 50% and over provided a reproducible model of gastric damage.

[3] = dose 10 mg/kg by gastric gavage
[4] = dose 50 mg/kg by gastric gavage
[5] = dose 100 mg/kg by gastric gavage

| Compound | Acid output compared to the histamine control (in words) [1] | Ulcer index compared to the control (in words) [2] | Ulcer Index, Mean ([2]; dose 1 mg/kg by gastric gavage) | Ulcer Index, Mean [2, 3] | Ulcer Index, Mean [2, 4] | Ulcer Index, Mean [2, 5] | Acid output, mean ([1]; time 0 min, 50 mg/kg oral) | Acid output, mean ([1]; time 30 min, 50 mg/kg oral) | Acid output, mean ([1]; time 45 min, 50 mg/kg oral) | Acid output, mean ([1]; time 60 min, 50 mg/kg oral) | Acid output, mean ([1]; time 75 min, 50 mg/kg oral) | Acid output, mean ([1]; time 90 min, 50 mg/kg oral) | Acid output, mean ([1]; time 105 min, 50 mg/kg oral) | Acid output, mean ([1]; time 120 min, 50 mg/kg oral) | Acid output, mean ([1]; time 135 min, 50 mg/kg oral) | Acid output, mean ([1]; time 150 min, 50 mg/kg oral) | also measured |
| --- | --- | --- | --- | --- | --- | --- | --- | --- | --- | --- | --- | --- | --- | --- | --- | --- | --- |
| C=CCSSCC=C [Allyl disulfide] | reduced acid output compared to the histamine control | significantly reduced ulcer index compared to the control | 11.67 | 0.00 | 8.33 | 11.00 |  |  |  |  |  |  |  |  |  |  | Acid output, mean ([1]; time 0 min, 10 mg/kg oral): 2.154 μmol (15 min^−1); Acid output, mean ([1]; time 30 min, 10 mg/kg oral): 3.514 μmol (15 min^−1); Acid output, mean ([1]; time 45 min, 10 mg/kg oral): 2.458 μmol (15 min^−1); Acid output, mean ([1]; time 60 min, 10 mg/kg oral): 2.085 μmol (15 min^−1); Acid output, mean ([1]; time 75 min, 10 mg/kg oral): 2.701 μmol (15 min^−1); Acid output, mean ([1]; time 90 min, 10 mg/kg oral): 2.77 μmol (15 min^−1); Acid output, mean ([1]; time 105 min, 10 mg/kg oral): 2.648 μmol (15 min^−1); Acid output, mean ([1]; time 120 min, 10 mg/kg oral): 1.431 μmol (15 min^−1); Acid output, mean ([1]; time 135 min, 10 mg/kg oral): 1.286 μmol (15 min^−1); Acid output, mean ([1]; time 150 min, 10 mg/kg oral): 1.34 μmol (15 min^−1) |
| C=CCSCC=C [Allyl sulfide, Diallyl sulfide] | reduced acid output compared to the histamine control | significantly reduced ulcer index compared to the control | 114.83 | 72.33 | 5.50 | 13.00 | 1.926 μmol (15 min^−1) | 3.328 μmol (15 min^−1) | 2.023 μmol (15 min^−1) | 1.742 μmol (15 min^−1) | 1.901 μmol (15 min^−1) | 1.627 μmol (15 min^−1) | 1.761 μmol (15 min^−1) | 1.883 μmol (15 min^−1) | 2.301 μmol (15 min^−1) | 1.525 μmol (15 min^−1) |  |
| Cc1c(OCC(F)(F)F)ccnc1C[S+]([O-])c1nc2ccccc2[nH]1 (centres unmarked) [Lansoprazole, reference compound] |  |  |  | 13.00 |  |  |  |  |  |  |  |  |  |  |  |  |  |
| O=c1c(O)c(-c2ccc(O)c(O)c2)oc2cc(O)cc(O)c12 [Quercetin] | reduced acid output compared to the histamine control | significantly reduced ulcer index compared to the control | 34.00 | 34.00 | 21.83 | 31.17 | 1.633 μmol (15 min^−1) | 3.323 μmol (15 min^−1) | 1.299 μmol (15 min^−1) | 5.507 μmol (15 min^−1) | 2.579 μmol (15 min^−1) | 1.84 μmol (15 min^−1) | 1.868 μmol (15 min^−1) | 2.213 μmol (15 min^−1) | 1.927 μmol (15 min^−1) | 1.497 μmol (15 min^−1) |  |
| CNC(=C[N+](=O)[O-])NCCSCc1ccc(CN(C)C)o1 [Ranitidine, reference compound] |  |  |  |  |  |  |  |  |  |  |  |  |  |  |  |  | Ulcer Index, Mean ([2]; dose 20 mg/kg): 28.50 |
